{
  "source": "patent US20040009241A1",
  "about": "“External skin preparations for suppressing sebum secretion” (priority 2002, published 2004)",
  "key": {"sebum secretion": {"system": "sebum secretion", "experiment": "Inhibitory effect of MMPs inhibitors on sebum secretion in UVB-irradiated hairless mice (sebumeter)", "format": "in vivo", "from_the_text": "UV is generally known to activate the sebaceous gland cells on the skin and thereby to enhance the amount of sebum secretion, which has been reported on a model using hairless mice ([…] et al., Arch Dermatol., Vol. 284, 106 (1992)). In an experiment, Bissett et al. (Phytochem. Phytobiol, Vol. 46, 3, 367 (1987)) applied the method of preparing a light-aged skin, and induced the activation of sebaceous gland cells and enhancement in the amount of sebum by irradiating the dorsal area of the […] repeatedly three times per week for 5-8 weeks by controlling the amount of UVB irradiation to under the […] formation level. […] As the control, a group in which the solvent for the test substance was applied in a similar protocol was set up, and the effect of inhibiting sebum was evaluated by comparing the amount of sebum between the two. The measurement of sebum amount was performed using a sebumeter (COURAGE KHAZAKA company). From the measured values, the ratio (%) of sebum inhibition was calculated based on the following criteria: [formula]"}, "[1]": {"system": "gelatinase belonging to the MMPs", "conditions": "skin irradiated with UVB for 10 weeks, EDTA (100 mM) added in vitro; FIG. 3C", "source_text": "By staining gelatin with the Ponceau solution, the gelatin digested area (the area in which the gelatinase activity is present) was rendered white for detection."}, "sebaceous gland": {"system": "sebaceous gland", "experiment": "Effect of transdermal application of an MMPs inhibitor on sebaceous gland development under UVB stimulation", "format": "in vivo, hairless mice", "conditions": "FIG. 4A vs solvent only FIG. 4B", "from_the_text": "It is known that when UVB (50 mJ/cm^2-200 mJ/cm^2; 50 mJ/cm^2 at the start of irradiation, the amount of irradiation is increased stepwise depending on the number of irradiations) below the erythema formation level is repeatedly irradiated to hairless mice, the sebaceous gland becomes developed and the amount of sebum increases (R. H. Lesnik et al., Arch Dermatol., Vol. 284, 106 (1992)). FIG. 2A and FIG. 2B represent the H&E stains of the UVB-non-irradiated tissue and the UVB-irradiated tissue. It is observed that UVB irradiation results in the thickening of the epidermis as well as the development of the sebaceous gland.\n(§1) The effect of the transdermal application of an MMPs inhibitor on the sebaceous gland development and the gelatinase activity present in the sebaceous gland is shown for active substance A as an example (FIG. 4A and FIG. 4B)."}, "gelatinase": {"system": "gelatinase", "experiment": "Gelatinase activity in the sebaceous gland after transdermal application, in situ zymography", "format": "in vivo, hairless mice", "conditions": "FIG. 4A vs solvent only FIG. 4B", "from_the_text": "as §1"}, "[2]": {"conditions": "100 μl of 1% test substance applied three times per week immediately after each UV irradiation, vs solvent group, hairless mice dorsal area, 5-8 weeks UVB"}},
  "note": "Counter-ions that a name gives are not always drawn.",
  "data": [
    {"compound": "COc1cc(/C=C/C(=O)CC(=O)/C=C/c2ccc(O)c(OC)c2)ccc1O", "note": "[Curcumine, curcumine]", "values": [
      {"measurement": "Ratio of sebum inhibition (%)", "setting": "sebum secretion; [2]", "value": 77, "unit": "%"}
    ]},
    {"compound": "O=C(O)CN(CCN(CC(=O)O)CC(=O)O)CC(=O)O", "note": "[EDTA]", "values": [
      {"measurement": "Gelatin degradation at the epidermal area and the sebaceous gland area", "setting": "[1]", "value": "inhibited the gelatin degradation"}
    ]},
    {"compound": "C[C@]12CC[C@@H]3c4ccc(O)cc4CC[C@H]3[C@@H]1CC[C@@H]2O", "note": "[Estradiol, estradiol, reference compound]", "values": [
      {"measurement": "Ratio of sebum inhibition (%)", "setting": "sebum secretion; positive control, 0.6 mg/kg oral administration, UVB-irradiated hairless mice", "value": 65, "unit": "%"}
    ]},
    {"compound": "COc1ccc(S(=O)(=O)N(Cc2cccnc2)[C@@H](C(=O)NO)C(C)C)cc1", "note": "[Hydrochloride of active ingredient A]", "values": [
      {"measurement": "Ratio of sebum inhibition (%)", "setting": "sebum secretion; [2]", "value": 79, "unit": "%"}
    ]},
    {"compound": "COc1ccc(S(=O)(=O)N(Cc2cccnc2)[C@@H](C(=O)NO)C(C)C)cc1", "note": "[active substance A]", "values": [
      {"measurement": "Development of the sebaceous gland area", "setting": "sebaceous gland", "value": "suppresses the development of the sebaceous gland area"},
      {"measurement": "Gelatinase activity present in the sebaceous gland", "setting": "gelatinase", "value": "inhibited"}
    ]}
  ]
}
